Reference: patent US20170014468A1, “METHODS OF USE FOR THERAPEUTICS TARGETING THE PATHOGEN PORPHYROMONAS GINGIVALIS” (Cortexyme, Inc., priority 2014, published 2017)
“Also recorded” adds a separate entry of the source.

Key:
[1] = test system: differentiated SH-SY5Y neuronal cells exposed to Kgp and/or RgpB; assay: gingipain induced toxicity in differentiated SH-SY5Y neuronal cells; type: cell-based; settings: 100 nM Kgp and/or RgpB, 24 hours, microscopy
Protocol: SH-SY5Y neuroblastoma cells were cultured and differentiated in the presence of 5 uM retinoic acid based on established methods. Differentiation into neuronal cells was verified by observation of neurite outgrowth. The differentiated cells were exposed to 100 nM Kgp and/or RgpB for 24 hours, in the presence or absence of gingipain inhibitors. Results were recorded using a digital microscope camera.

P. gingivalis = settings: cited from earlier work
Rgp = settings: cited from earlier work

Row | Compound | protection against gingipain induced toxicity / cell death [1] | growth inhibition of P. gingivalis (P. gingivalis) | further results
1 | NC(=O)CI [iodoacetamide] | blocks toxicity |  | protection against gingipain induced toxicity / cell death ([1]; listed as Iodoacetamide): prevents this effect
2 | CN(NC(=O)CC[C@H](NC(=O)OCc1ccccc1)C(=O)N[C@@H](CCCCN)C(=O)C(=O)NCc1ccccc1)c1ccccc1 [Kyt-36] | can protect neurons; also recorded: more protective than Rgp inhibitors; also recorded: largely blocks gingipain induced toxicity |  | protection against gingipain induced toxicity / cell death ([1]; listed as Kyt 36): prevented gingipain induced neurodegeneration
3 | phenylalanyl-ureido-citrullinyl-valyl-cycloarginal [FA-70C1] |  | exhibits growth-inhibitory activity | Rgp inhibition (Rgp): potent Rgp inhibitor
4 | CC(C)C[C@H](NC(=O)[C@@H](O)[C@H](N)Cc1ccccc1)C(=O)O [bestatin] |  | selectively inhibits growth | 
5 | CN(C)C(=O)[C@H](CCCCN)NC(=O)C(=O)[C@H](CCCN=C(N)N)NC(=O)[C@H](CCCCN)NC(=O)OCc1ccccc1 [Kyt-1] | can protect neurons; also recorded: effective but less so |  | 
